Laboratory results taken from ChEMBL document CHEMBL1201862, “PubChem BioAssay data set” (2004).
Activity calls are given as the source filed them.

Assays:
[1] = target: T1, Cytochrome P450 1A2 (Homo sapiens, UniProt P05177);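 further: PubChem cytochrome P450 panel assay, CYP1A2 panel member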
T1 sequence (P05177 whole entry): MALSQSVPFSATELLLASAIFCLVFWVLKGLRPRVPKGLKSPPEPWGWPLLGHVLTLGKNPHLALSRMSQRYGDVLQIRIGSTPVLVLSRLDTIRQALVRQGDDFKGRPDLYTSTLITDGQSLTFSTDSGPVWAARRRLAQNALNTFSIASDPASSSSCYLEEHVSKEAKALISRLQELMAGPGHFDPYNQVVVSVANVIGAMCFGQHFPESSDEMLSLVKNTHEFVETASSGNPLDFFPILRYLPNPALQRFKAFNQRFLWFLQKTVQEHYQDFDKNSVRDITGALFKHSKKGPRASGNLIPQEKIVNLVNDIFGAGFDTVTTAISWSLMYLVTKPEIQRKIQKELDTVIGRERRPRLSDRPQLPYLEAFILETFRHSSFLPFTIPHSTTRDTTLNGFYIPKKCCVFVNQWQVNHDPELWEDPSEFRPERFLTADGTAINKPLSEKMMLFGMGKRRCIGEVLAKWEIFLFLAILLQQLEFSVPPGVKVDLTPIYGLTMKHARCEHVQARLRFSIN

[2] = target: Cytochrome P450 3A4 (Homo sapiens, UniProt P08684);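 further: CYP3A4 tested as one member of a cytochrome P450 panel screen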
[3] = luciferase reporter signal suppression in cells – H4 neuroglioma cells, luminescence, dose response (AID 1990); type: functional, cell-based
[4] = Luminescence Cell-Based Dose Response HTS to Identify Inhibitors of 5'UTR Stem-Loop Driven Prion Protein mRNA Translation in H4 Neuroglioblastoma Cells. [Related pubchem assays: 1827 (Project Summary), 1813 (Primary HTS)]; type: functional
[5] = alpha-synuclein stem-loop luciferase translation blockers – H4 neuroglioma cells, luminescence, confirmation (AID 1988); type: functional, cell-based
[6] = target: Cytochrome P450 2C9 (Homo sapiens, UniProt P11712)
[7] = target: Cytochrome P450 2C19 (Homo sapiens, UniProt P33261); assay: Cytochrome panel assay with activity outcomes. Panel member name: p450-cyp2c19 Compounds with AC50 equal or less than 10 uM are considered active; type: functional; conditions: read-out: AC50
[8] = Luminescence Cell-Based Dose Retest to Confirm Inhibitors of Cancer Stem Cells. [Related pubchem assays (depositor defined):AID2717, AID2721]; type: functional; conditions: Homo sapiens
[9] = tested on: Streptococcus sp. 'group A'; assay: Streptococcus pyogenes SK(-)GAS viability under kanamycin – luminescence, BacTiterGlo, confirmation, counter-screen for streptokinase expression inhibitor project, dose response (AID 1900); type: functional, organism-based
[10] = target: T2, Streptokinase A (Streptococcus pyogenes serotype M1, UniProt P10520); assay: viability-normalized secreted streptokinase activity reduction – plasminogen activation absorbance, OD405, dose response (AID 1914); type: functional, Streptococcus pyogenes M1 GAS;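 further: secreted streptokinase activity via plasminogen activation per viability signal from cell pellet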
T2 sequence (P10520 whole entry): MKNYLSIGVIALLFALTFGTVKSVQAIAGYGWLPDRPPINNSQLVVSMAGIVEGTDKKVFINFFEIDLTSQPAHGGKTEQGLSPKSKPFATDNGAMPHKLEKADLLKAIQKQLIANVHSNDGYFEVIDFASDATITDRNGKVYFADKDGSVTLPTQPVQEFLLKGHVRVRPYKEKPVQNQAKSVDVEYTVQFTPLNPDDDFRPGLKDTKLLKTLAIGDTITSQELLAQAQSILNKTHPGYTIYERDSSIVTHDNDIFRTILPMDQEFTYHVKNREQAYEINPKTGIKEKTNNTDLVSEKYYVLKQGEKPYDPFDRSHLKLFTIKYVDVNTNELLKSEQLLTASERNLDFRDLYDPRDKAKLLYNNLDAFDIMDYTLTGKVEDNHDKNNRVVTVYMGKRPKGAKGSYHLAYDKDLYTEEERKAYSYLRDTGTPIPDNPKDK

[11] = tested on: Streptococcus; assay: GAS UMAA2166 growth inhibition – luminescence, BacTiterGlo, counter-screen for streptokinase expression inhibitor project, dose response (AID 1915); type: functional, organism-based;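 further: potency for reduction of bacterial viability or growth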
[12] = target: T3, Corticotropin-releasing factor receptor 2/Corticotropin-releasing factor-binding protein (Homo sapiens, UniProt P24387+Q13324); assay: activators of CRF receptor 2 with binding protein – uHTS hits, confirmation (AID 602473); type: functional; conditions: read-out: EC50_Mean
T3 sequence (Q13324 whole entry): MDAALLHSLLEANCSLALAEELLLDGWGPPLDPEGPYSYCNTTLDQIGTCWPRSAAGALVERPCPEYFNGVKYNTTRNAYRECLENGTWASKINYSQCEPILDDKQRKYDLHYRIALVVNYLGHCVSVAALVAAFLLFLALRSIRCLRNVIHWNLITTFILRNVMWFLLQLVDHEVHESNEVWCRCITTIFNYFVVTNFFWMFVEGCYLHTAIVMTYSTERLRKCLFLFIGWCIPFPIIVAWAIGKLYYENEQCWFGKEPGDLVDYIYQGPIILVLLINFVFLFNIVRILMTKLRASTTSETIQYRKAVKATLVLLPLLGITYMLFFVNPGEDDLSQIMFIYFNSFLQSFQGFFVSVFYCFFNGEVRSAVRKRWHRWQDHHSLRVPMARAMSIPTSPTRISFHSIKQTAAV
T3 sequence (P24387 whole entry): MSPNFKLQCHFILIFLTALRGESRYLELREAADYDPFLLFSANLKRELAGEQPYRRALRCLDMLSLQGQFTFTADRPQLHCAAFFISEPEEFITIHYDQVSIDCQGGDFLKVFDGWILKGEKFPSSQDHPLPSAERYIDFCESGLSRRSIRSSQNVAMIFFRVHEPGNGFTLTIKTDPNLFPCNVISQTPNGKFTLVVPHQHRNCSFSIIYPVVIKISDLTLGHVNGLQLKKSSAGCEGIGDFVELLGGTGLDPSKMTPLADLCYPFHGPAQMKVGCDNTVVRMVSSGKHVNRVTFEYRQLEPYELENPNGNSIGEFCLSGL

[13] = target: Paired box protein Pax-8 (Homo sapiens, UniProt Q06710); assay: PAX8 transcriptional activity inhibition in RMG-I – RMG-I cells, luciferase, cherry-pick, dose response (AID 687027); type: functional, cell-based;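 further: luciferase reporter driven by Pax8 target thyroperoxidase promoter measured by SteadyGlo luminescence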
Chain of Paired box protein Pax-8 (Q06710 whole entry): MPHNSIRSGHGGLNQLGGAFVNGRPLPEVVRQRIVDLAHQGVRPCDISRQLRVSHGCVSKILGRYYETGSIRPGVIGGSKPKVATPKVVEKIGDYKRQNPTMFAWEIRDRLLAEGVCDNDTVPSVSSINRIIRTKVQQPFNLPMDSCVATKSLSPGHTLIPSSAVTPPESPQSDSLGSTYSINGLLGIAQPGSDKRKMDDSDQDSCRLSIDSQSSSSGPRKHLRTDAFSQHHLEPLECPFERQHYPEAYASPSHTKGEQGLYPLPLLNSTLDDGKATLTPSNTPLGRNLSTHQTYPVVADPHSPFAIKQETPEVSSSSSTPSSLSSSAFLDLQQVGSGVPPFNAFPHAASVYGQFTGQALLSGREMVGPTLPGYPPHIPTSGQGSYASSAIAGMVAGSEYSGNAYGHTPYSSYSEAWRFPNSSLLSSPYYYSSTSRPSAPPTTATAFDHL

Chain of Cytochrome P450 3A4 (P08684 whole entry): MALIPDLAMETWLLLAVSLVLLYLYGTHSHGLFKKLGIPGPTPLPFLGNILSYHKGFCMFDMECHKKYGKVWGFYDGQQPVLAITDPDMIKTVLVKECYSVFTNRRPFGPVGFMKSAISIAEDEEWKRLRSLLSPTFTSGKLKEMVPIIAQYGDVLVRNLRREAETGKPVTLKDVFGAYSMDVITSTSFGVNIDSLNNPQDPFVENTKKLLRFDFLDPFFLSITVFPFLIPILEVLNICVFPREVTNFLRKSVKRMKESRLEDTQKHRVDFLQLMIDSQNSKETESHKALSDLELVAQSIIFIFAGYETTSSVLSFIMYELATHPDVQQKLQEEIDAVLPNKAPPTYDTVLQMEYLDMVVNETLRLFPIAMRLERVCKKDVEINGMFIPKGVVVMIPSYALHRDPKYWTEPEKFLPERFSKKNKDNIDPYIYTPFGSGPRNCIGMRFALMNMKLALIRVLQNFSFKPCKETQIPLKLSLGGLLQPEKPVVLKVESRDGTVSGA
Chain of Cytochrome P450 2C9 (P11712 whole entry): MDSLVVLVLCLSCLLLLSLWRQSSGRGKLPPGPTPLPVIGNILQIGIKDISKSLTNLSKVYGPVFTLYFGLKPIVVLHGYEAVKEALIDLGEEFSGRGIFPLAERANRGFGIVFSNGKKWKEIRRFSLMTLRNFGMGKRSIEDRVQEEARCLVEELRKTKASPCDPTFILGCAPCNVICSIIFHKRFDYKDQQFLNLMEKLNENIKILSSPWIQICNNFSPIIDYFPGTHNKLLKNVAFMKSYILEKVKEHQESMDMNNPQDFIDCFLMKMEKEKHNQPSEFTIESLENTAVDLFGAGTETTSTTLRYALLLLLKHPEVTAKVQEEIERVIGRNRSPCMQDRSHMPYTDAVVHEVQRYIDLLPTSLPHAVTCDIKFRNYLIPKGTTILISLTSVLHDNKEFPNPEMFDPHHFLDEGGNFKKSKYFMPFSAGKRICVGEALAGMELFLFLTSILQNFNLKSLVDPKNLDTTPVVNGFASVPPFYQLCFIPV
Chain of Cytochrome P450 2C19 (P33261 whole entry): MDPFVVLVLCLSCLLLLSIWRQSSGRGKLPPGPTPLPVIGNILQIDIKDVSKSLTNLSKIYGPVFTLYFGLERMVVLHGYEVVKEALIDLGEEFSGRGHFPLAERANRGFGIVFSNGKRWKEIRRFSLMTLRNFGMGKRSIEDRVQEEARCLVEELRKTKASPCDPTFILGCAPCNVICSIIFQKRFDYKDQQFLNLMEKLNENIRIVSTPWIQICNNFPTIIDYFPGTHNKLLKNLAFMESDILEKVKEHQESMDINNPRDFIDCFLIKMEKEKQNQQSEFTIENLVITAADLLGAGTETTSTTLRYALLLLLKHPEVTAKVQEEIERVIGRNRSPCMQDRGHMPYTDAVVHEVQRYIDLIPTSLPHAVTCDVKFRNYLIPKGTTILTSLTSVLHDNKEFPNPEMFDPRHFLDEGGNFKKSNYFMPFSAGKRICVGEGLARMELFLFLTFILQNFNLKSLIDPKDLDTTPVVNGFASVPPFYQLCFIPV

For Clc1ccc(Sc2cc(N3CCOCC3)nc(-c3ccccc3)n2)cc1, the AC50 [1] was 1.41 µM (inconclusive) and the AC50 [2] was 15.8 µM (inconclusive).

With Cc1ccc(-c2nc(-c3cccnc3)sc2CC(=O)Nc2ccc(C)c(Cl)c2)cc1 the EC50 [3] was > 120 µM (not active), the EC50 [4] was 0.3 µM (active) and the EC50 [5] was > 120 µM (not active).

For Cc1cc(C)c2c(O)nc(SCC(=O)N(C)C)nc2n1, the AC50 [1] was 15.8 µM (inconclusive).

With COCCN(CCOC)S(=O)(=O)c1ccc(C(=O)Nc2nc(C)c(C(C)=O)s2)cc1 the AC50 [1] was 0.1 µM (inconclusive), the AC50 [2] was 3.16 µM (inconclusive) and the AC50 [6] was 20 µM (inconclusive).

For COc1ccc(Cc2nnc(NC(=O)c3ccc(OC)c(OC)c3)s2)cc1OC, the EC50 [3] was > 120 µM (not active), the EC50 [4] was > 120 µM (not active) and the EC50 [5] was > 120 µM (not active).

For Fc1cccc(CSc2ncnc3c2ncn3[C@H]2CCCS2)c1, the AC50 [7] was 3.98 µM (inconclusive) and the AC50 [1] was 0.501 µM (inconclusive).

With CC(CO)(CO)Nc1ncnc2ccccc12 the AC50 [1] was 6.31 µM (inconclusive).

For O=C1/C(=C\c2cc(Br)cc(Br)c2O)SC(=S)N1Cc1ccccc1, the AC50 [8] was 0.894 µM (active).

In the case of CCCC(=O)Nc1ccc2c(c1)nc(CCNC(=O)c1ccccc1)n2C, the EC50 [9] is reported as > 150 µM (not active), the EC50 [10] is reported as > 150 µM (not active) and the EC50 [11] is reported as > 150 µM (not active).

In the case of Cc1ccccc1CS(=O)(=O)c1ccc(C(=O)N2CCOCC2)cc1[N+](=O)[O-], the EC50 [3] is reported as > 120 µM (not active), the EC50 [4] is reported as > 120 µM (not active) and the EC50 [5] is reported as > 120 µM (not active).

For CC1=NN(c2ccc([N+](=O)[O-])cc2)C(=O)/C1=C\N(C)C, the EC50 [9] was 5.85 µM (active), the EC50 [10] was > 150 µM (not active) and the EC50 [11] was 10.9 µM (active).

With COCCNc1nnnc2c1sc1nc(N3CCOCC3)c3c(c12)CC(C)(C)OC3 the EC50 [3] was 15.8 µM (active), the EC50 [4] was > 120 µM (not active) and the EC50 [5] was > 120 µM (not active).

For CC(C)(C)NC(=O)c1ccc2c(c1)C1C3CCC(C3)C1C(c1ccccc1)N2 (stereo not drawn), the EC50 [3] was > 120 µM (not active), the EC50 [4] was > 120 µM (not active) and the EC50 [5] was > 120 µM (not active).

For Cn1nnnc1SCc1ccc(C(=O)Nc2ccc(Br)cc2)cc1, the AC50 [7] was 6.31 µM (inconclusive), the AC50 [1] was 6.31 µM (inconclusive) and the AC50 [6] was 2 µM (inconclusive).

For CC1CCCN(S(=O)(=O)c2ccc(C(=O)Nc3nnc(C4CC4)o3)cc2)C1 (stereo not drawn), the EC50 [9] was 4.14 µM (active), the EC50 [10] was > 150 µM (not active) and the EC50 [11] was 13.8 µM (active).

In the case of COc1ccc(C(=O)NC(=S)N2CCN(c3ccccc3OC)CC2)cc1OC, the EC50 [3] is reported as > 120 µM (not active), the EC50 [4] is reported as > 120 µM (not active) and the EC50 [5] is reported as > 120 µM (not active).

For CN1C(=O)/C(=C/c2ccccc2F)Sc2ccc(C(=O)NCC3CCCO3)cc21 (stereo not drawn), the EC50 [9] was 1.09 µM (active), the EC50 [10] was > 150 µM (not active) and the EC50 [11] was 15.6 µM (active).

With Nc1nc2c3ccccc3nc(Cc3ccccc3)n2n1 the EC50 [3] was 29.4 µM (active), the EC50 [4] was > 120 µM (not active) and the EC50 [5] was 20.8 µM (active).

For COc1ccc(-c2nc3cnc(N4CCOCC4)nc3n(CCc3ccccc3)c2=O)cc1, the AC50 [1] was 10 µM (inconclusive).

In the case of N#Cc1ccc(NCCc2ccccn2)c([N+](=O)[O-])c1, the EC50 [3] is reported as 23.7 µM (active), the EC50 [4] is reported as > 120 µM (not active) and the EC50 [5] is reported as > 120 µM (not active).

With Cc1cc(C)nc(NC(=O)/C=C/c2cccs2)c1 the AC50 [8] was 6.68 µM (active).

With C=CCC(NCc1ccco1)c1ccc(OC)cc1 (stereo not drawn) the AC50 [1] was 28.2 µM (inconclusive) and the AC50 [2] was 22.4 µM (inconclusive).

With CCN(CC)C(=O)c1cc(-c2ccc(Br)cc2)on1 the EC50 [9] was > 150 µM (not active), the EC50 [10] was > 150 µM (not active) and the EC50 [11] was > 150 µM (not active).

In the case of COC(C(=O)Nc1ccnn1C1CCN(Cc2nccs2)CC1)c1ccccc1 (stereo not drawn), the EC50 [9] is reported as > 150 µM (not active), the EC50 [10] is reported as > 150 µM (not active) and the EC50 [11] is reported as > 150 µM (not active).

For O=[N+]([O-])c1cc(-c2cnc3ccccc3n2)ccc1Oc1ccc(Cl)cc1, the AC50 [8] was 0.628 µM (active).

With COc1ccc2nc(N3C(=O)CC(Cc4ccc(Cl)cc4)C3=O)sc2c1 (stereo not drawn) the AC50 [1] was 2.24 µM (inconclusive).

With Cc1ccc(-n2c(C)cc(C(=O)CN3C(=O)C(=O)N(C4CCCC4)C3=O)c2C)cc1 the EC50 [12] was > 53 µM (inactive).

With CC1CCC(C(C)C)C(OCC(O)CN2CCN(Cc3ccccc3)CC2)C1 (stereo not drawn) the AC50 [1] was 12.6 µM (inconclusive) and the AC50 [6] was 1.41 µM (inconclusive).

For CCOC(=O)C(O)(c1ccc(NC(=S)NC(=O)c2ccc(Cl)cc2Cl)cc1)C(F)(F)F (stereo not drawn), the EC50 [12] was 15.9 µM (active).

With Cc1cc(NC(=O)CN2C(=O)NC(C)(c3ccc(OC(F)F)cc3)C2=O)no1 (stereo not drawn) the EC50 [12] was 14.4 µM (active).

For Cc1onc(-c2c(Cl)cccc2Cl)c1C(=O)NNc1ccccc1, the AC50 [8] was 1.44 µM (active).

For CCOC(=O)Nc1sc(C(=O)N(C)C)c(C)c1C(=O)OCC, the EC50 [3] was 23.9 µM (active), the EC50 [4] was > 120 µM (not active) and the EC50 [5] was 76.5 µM (active).

With Cc1noc(C)c1C(=O)Nc1nccs1 the EC50 [9] was > 150 µM (not active), the EC50 [10] was > 150 µM (not active) and the EC50 [11] was > 150 µM (not active).

With Cc1cc2c3c(ccc(C)c3n1)N=CN2c1ccccc1 the EC50 [3] was 12.3 µM (active), the EC50 [4] was 23.3 µM (active) and the EC50 [5] was 119 µM (active).

For CCc1cccc(CC)c1N1C(=O)C2=C(SCCCS2)C1=O, the EC50 [12] was 6.9 µM (active).

For Cc1ccc(S(=O)(=O)Nc2ccc3c(c2)C(=O)N([C@@H](C)CO)C[C@@H](C)[C@@H](CN(C)Cc2ccc(Cl)c(Cl)c2)OCCCC[C@@H](C)O3)cc1, the AC50 [13] was 9.18 µM (active).

For C[C@@H]1CCCCO[C@H](CN(C)C(=O)Nc2ccc(C(F)(F)F)cc2)[C@@H](C)CN([C@@H](C)CO)C(=O)c2cc(NC(=O)Nc3ccccc3)ccc2O1, the AC50 [13] was 1.89 µM (active).

In the case of C[C@@H]1CN([C@@H](C)CO)C(=O)Cc2cc(NC(=O)C3CC3)ccc2O[C@H]1CN(C)Cc1ccc(-c2ccccc2)cc1, the AC50 [13] is reported as 18.9 µM (active).

For Sc1nnc(C2CCCCC2)n1/N=C/c1c(Cl)cccc1Cl, the EC50 [9] was 10.1 µM (active), the EC50 [10] was > 150 µM (not active) and the EC50 [11] was 71.9 µM (active).

For COc1ccc(/C(C)=N/NC(=O)c2ccc(N(C)C)cc2)cc1, the AC50 [1] was 10 µM (inconclusive).

For Cc1ccc(/C=N/n2cnnc2)s1, the AC50 [7] was 11.2 µM (inconclusive), the AC50 [1] was 22.4 µM (inconclusive) and the AC50 [2] was 15.8 µM (inconclusive). For the same compound, the AC50 [6] was 14.1 µM (inconclusive).
